pIC50: −log10 of the molar value. Where two headings read alike, the source gives them in different places.

The text below walks through data of patent US9321808B2, “Homo- and heterodimeric SMAC mimetic compounds as apoptosis inducers” (BioNTech AG, priority 2012, dated 2016).

For series [1], the system named is IGROV-1 human ovarian carcinoma xenografted s.c. To be noted: for TVI %, tumor volume inhibition % in treated over control mice: assessed 7 days after last treatment. How it is done:
(§1) All experiments of antitumor activity were carried out using female athymic Swiss nude mice, 8-10 weeks-old (Charles River, Calco, Italy). Mice were maintained in laminar flow rooms keeping temperature and humidity constant. Mice had free access to food and water. Experiments were approved by the Ethics Committee for Animal Experimentation of the Istituto Nazionale Tumori of Milan according to institutional guidelines.
(§2) Chem. Soc. […] The drugs were delivered i.p. in a volume of 10 ml/Kg of body weight.
For subcutaneous (s.c.) growth, exponentially growing tumor cells (5×10^6 cells/mouse) were s.c. injected into the right flank of athymic nude mice. The tumor line was achieved by serial s.c. passages of fragments (about 2×2×6 mm) from regrowing tumors into healthy mice. Groups of five mice bearing bilateral s.c. tumors were employed. Tumor fragments were implanted on day 0 and tumor growth was followed by biweekly measurements of tumor diameters with a Vernier caliper. […] Treatment started three days after tumor implant, when tumors were just palpable. […] The toxicity of the drug treatment was determined as body weight loss and lethal toxicity. Deaths occurring in treated mice before the death of the first control mouse were ascribed to toxic effects. Student t test (two tailed) exact test was used for statistical comparison of tumor volumes in mice.

In a further series the target is T1, cIAP2-BIR3 (Homo sapiens, UniProt Q13489).
T1 construct: 6xHis (C); made in house; host or cells: Escherichia coli BL21(DE3)
Kind of series: Fluorescence polarization binding, cIAP2 BIR3. How it is done: (§3) The plasmids were used to transform Escherichia coli strain BL21(DE3). The recombinant proteins were purified using Ni-NTA (His-trap FFcrude, Ge-Healthcare), followed by gel filtration (Superdex 200, Ge-Healthcare). The recombinant proteins were eluted in 20 mM Tris pH 8.0, 250 mM NaCl and 10 mM DTT. Aliquoted proteins were conserved at −80° C.
(§4) The fluorescently-labelled Smac peptide (AbuRPF-K(5-Fam)-N1-12, final concentration of 2 nM), and increasing concentrations of cIAP1- and cIAP2-BIR3 from 0 to 20 μM, were added to an assay buffer consisting of 100 mM potassium phosphate, pH 7.5, 100 μg/ml bovine γ-globulin, 0.02% sodium azide. […] All experiments were performed in black, flat-bottom 96-well microplates (Greiner bio-one). 4-substituted azabicyclo[5.3.0]alkane Smac-mimetics were evaluated for their ability to displace the fluorescent probe from recombinant protein. […] After 15 minutes mixing on a shaker, and 3 hours incubation at room temperature, fluorescent polarization was measured on the Ultra plate reader (Tecan).
A general note: Fluorescence polarisation rises when a labelled molecule tumbles more slowly, as on binding a larger partner.

Series [2] has as its system IGROV-1 human ovarian carcinoma xenografted i.p. The experiment in a line: Ovarian tumor i.p. xenograft, survival. Format: in vivo, athymic nude mice. The settings on record: 5 mg/kg, qdx4-5/wx2-3w, IGROV-1 i.p. How it is done: as §1, §2
The IGROV-1 tumor was adapted to grow in the peritoneal cavity (i.p.) and maintained by serial i.p. passages of ascitic cells into healthy mice. In this tumor model, hemorrhagic ascites with diffuse peritoneal carcinomatosis develops and the animal eventually die. For evaluation of antitumor activity, 2.5×10^6 ascitic cells in 0.2 ml of saline were injected i.p. into mice. Locoregional administration was employed. […] For antitumor activity studies, experimental groups were inspected daily and weighed three times weekly. Prior to impending death, mice were sacrificed by cervical dislocation and day of sacrifice was considered as day of death and the median survival time (MST) was calculated for each group. Antitumor activity was assessed as T/C %, i.e., the ratio of MST in treated mice over that of control mice×100. For statistical analysis, percent survivorship over time was estimated by the Kaplan-Meier product method and compared using the log-rank test.
Treatment started the day after tumor cell inoculation.

The subject of series [3] is MDA-MB-231 (breast epithelial adenocarcinoma). Kind of series: Standalone cytotoxicity, MTT assay, MDA-MB-231. Format: cell-based, human. The settings on record: reported as activity range, read-out: MDA-MB-231 IC50 (μM ± standard Deviation). How it is done: (§5) Human cell lines MDA-MB-231 (breast epithelial adenocarcinoma), HL-60 (promieloblast cells) and PC-3 (prostate adenocarcinoma cells) were purchased from Istituto Zooprofilattico di Brescia (www.bs.izs.it). Reagents for cell culture were purchased from Sigma, unless otherwise indicated. Cells were grown on Plastic Petri dishes (Falcon) in RPMI 1640 medium supplemented with 2 mM L-glutamine, Penicillin (100 U/mL)/Streptomicin (100 μg/mL), 10% Fetal Bovine Serum. A sub-cultivation ratio of 1:4 was used. Cells were maintained at 37° C. in an atmosphere of 95% air and 5% CO2.
(§6) Cells were seeded in 96-well flat bottom cell culture plates at a density of 5000 cells/well in 100 μL of culture medium. HL-60 cells were immediately stimulated with the indicated compounds for 96 hours in the incubator. MDA-MB-231 and PC-3 cells were allowed to adhere for 24 hours. prior to be exposed to the compounds for 96 hours in the incubator. Cells were exposed to the following concentrations of the compounds: 50 nM, 100 nM, 200 nM, 500 nM, 1 μM, 5 μM, 10 μM, 50 μM and 100 μM. Each point was done in triplicate. The cellular growth inhibitory effect of our compounds was evaluated using the MTT assay (Sigma). After 96 hours of treatment, 10 μL of MTT reagent solution (5 mg of MTT powder/mL diluted in Phosphate Buffer Salt saline solution) were added in each well and allowed to react for 3 hours in the incubator. After 3 hours cells were solubilized in Lysis Buffer (10% SDS/0.1% HCl in water, 100 μL for each well) for 24 hours at 37° C. Finally, the absorbance was measured at 570 nm using a multiplate reader. Absorbance values were collected and IC50 values were determined using GraphPad Prism5 software. The experiments were repeated twice.
After 96 hours of treatment, 10 μl of MTT reagent solution (5 mg of MTT powder/ml diluted in Phosphate Buffer Salt saline solution) were added in each well and allowed to react for 3 hours in the incubator. After 3 hours cells were solubilized in Lysis Buffer (10% SDS/0.1% HCl in water, 100 μl for each well) for 24 hours at 37° C. Finally, the absorbance was measured at 570 nm using a multiplate reader. Absorbance values were collected and IC50/IC80 values were determined using GraphPad Prism5 software.

The test system of series [4] is HL-60 (promieloblast cells). The experiment in a line: Standalone cytotoxicity, MTT assay, HL-60. Format: cell-based, human. The settings on record: reported as activity range, read-out: HL-60 IC50 (μM ± standard Deviation). The method, then:
as §5
as §6, with “The experiments were repeated twice.” left out
(§7) After 96 hours of treatment, 10 μl of MTT reagent solution (5 mg of MTT powder/ml diluted in Phosphate Buffer Salt saline solution) were added in each well and allowed to react for 3 hours in the incubator. […] Finally, the absorbance was measured at 570 nm using a multiplate reader. Absorbance values were collected and IC50/IC80 values were determined using GraphPad Prism5 software.

For series [5], the system named is PC-3 (prostate adenocarcinoma cells). The experiment in a line: Standalone cytotoxicity, MTT assay, PC-3. The format is cell-based, human. The settings on record: 96 hours treatment, reported as activity range, read-out: PC-3 IC50 (μM ± standard Deviation). How it is done:
as §5
as §6, with “The experiments were repeated twice.” left out
as §7

The target of another series is T2, cIAP1-BIR3 (Homo sapiens, UniProt Q13490).
T2 construct: 6xHis (C); made in house; host or cells: Escherichia coli BL21(DE3)
Kind of series: Fluorescence polarization binding, cIAP1 BIR3. The settings on record: displacement of fluorescent probe (2 nM) from cIAP1-BIR3 (10 nM); average of three independent measurements; read-out: cIAP1 IC50(av). The method, then:
as §3, §4

Where [6] appears, read: i.p., 5 mg/kg, qdx4-5/wx3w, IGROV-1 s.c.
Setting [7] is: Homo sapiens, MDA-MB-231, 96 hours treatment.
[8] abbreviates: Homo sapiens, HL-60, 96 hours treatment.
The mark [9] stands for this setting: displacement of fluorescent probe (2 nM) from cIAP2 (25 nM), average of three independent measurements, read-out: cIAP2 IC50(av).

T1 sequence (Q13489 237-349): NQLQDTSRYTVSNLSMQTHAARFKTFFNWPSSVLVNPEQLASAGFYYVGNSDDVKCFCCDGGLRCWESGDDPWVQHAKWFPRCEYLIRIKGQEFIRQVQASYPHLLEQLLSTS
T2 sequence (Q13490 251-363): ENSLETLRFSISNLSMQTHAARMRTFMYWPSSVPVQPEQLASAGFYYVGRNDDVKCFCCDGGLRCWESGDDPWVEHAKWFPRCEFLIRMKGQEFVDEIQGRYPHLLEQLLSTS

For `CC[C@H](NC)C(=O)N[C@@H]1C(=O)N2[C@@H](CC[C@@H]1CO)CC[C@H]2C(=O)N[C@@H](c1ccccc1)c1cn(CCCCc2ccc(CCCCn3cc([C@@H](NC(=O)[C@@H]4CC[C@@H]5CC[C@H](CO)[C@H](NC(=O)[C@H](CC)NC)C(=O)N54)c4ccccc4)nn3)cc2)nn1` [Compound 28a], the Tolerability result in series [1] (i.p., 5 mg/Kg, qdx5/wx3) is on record as “well tolerated”. Also, the “Tox, dead/treated mice” value in series [1] (i.p., 5 mg/kg, qdx4-5/wx3w) is 0/4. Moreover, the “TVI %, tumor volume inhibition % in treated over control mice” value in series [1] (setting [6]) is 66%. Further, in series [1] (i.p., 5 mg/kg, qdx4-5/wx3w, the highest change is reported), the “BWL %, body weight loss % induced by treatment” value is listed as 2%. Moreover, the pIC50 (commonly the negative decadic logarithm of the IC50, by convention in mol/L) at cIAP2-BIR3 is 8.60. The “MST, median survival time” value in series [2] amounted to 36 days. In addition, in series [2], the “Range of the days of death” value was 28 to 56 days. Also, the values for the IC50 in series [3] (setting [7]), in series [4] (setting [8]) and in series [5] (Homo sapiens) were less than 1 µM, less than 1 µM and greater than 50 µM, respectively.
Regarding `CC[C@H](NC)C(=O)N[C@@H]1C(=O)N2[C@@H](CC[C@@H]1CNCc1ccccc1)CC[C@H]2C(=O)N[C@@H](c1ccccc1)c1cn(CCCCc2ccc(CCCCn3cc([C@@H](NC(=O)[C@@H]4CC[C@@H]5CC[C@H](CNCc6ccccc6)[C@H](NC(=O)[C@H](CC)NC)C(=O)N54)c4ccccc4)nn3)cc2)nn1` [Compound 29a], the pIC50 at cIAP2-BIR3 was 7.92. The IC50 (as a rule, the midpoint of a concentration-inhibition curve) in series [3] (setting [7]) is less than 1 µM.
`CC[C@H](NC)C(=O)N[C@@H]1C(=O)N2[C@@H](CC[C@@H]1CO)CC[C@H]2C(=O)N[C@H](C(=O)NCCCCCCCCNC(=O)[C@@H](NC(=O)[C@@H]1CC[C@@H]2CC[C@H](CO)[C@H](NC(=O)[C@H](CC)NC)C(=O)N21)c1ccccc1)c1ccccc1` [Compound 30a] had a pIC50 at cIAP2-BIR3 of 8.74. The IC50 in series [3] (setting [7]) was less than 1 µM.
With `CC[C@H](NC)C(=O)N[C@@H]1C(=O)N2[C@@H](CC[C@@H]1CO)CC[C@H]2C(=O)N[C@H](C(=O)NCCNC(=O)CCC#CC#CCCC(=O)NCCNC(=O)[C@@H](NC(=O)[C@@H]1CC[C@@H]2CC[C@H](CO)[C@H](NC(=O)[C@H](CC)NC)C(=O)N21)c1ccccc1)c1ccccc1` [Compound 30c], the IC50 in series [3] (setting [7]) is 10 to 50 µM.
As to `CC[C@H](NC)C(=O)N[C@@H]1C(=O)N2[C@@H](CC[C@@H]1CO)CC[C@H]2C(=O)N[C@H](C(=O)NCCCOCCOCCOCCCNC(=O)[C@@H](NC(=O)[C@@H]1CC[C@@H]2CC[C@H](CO)[C@H](NC(=O)[C@H](CC)NC)C(=O)N21)c1ccccc1)c1ccccc1` [Compound 30d], at cIAP2-BIR3 (setting [9]), the pIC50 was 8.66. Further, the IC50 was 10 to 50 µM in series [3] (setting [7]), 10 to 50 µM in series [4] (setting [8]) and greater than 50 µM in series [5] (Homo sapiens).
As for `CC[C@H](NC)C(=O)N[C@@H]1C(=O)N2[C@@H](CC[C@@H]1Cn1cc(CCC(=O)NCCOCCOCCOCCNC(=O)[C@@H](NC(=O)[C@@H]3CC[C@@H]4CC[C@H](CO)[C@H](NC(=O)[C@H](CC)NC)C(=O)N43)c3ccccc3)nn1)CC[C@H]2C(=O)NC(c1ccccc1)c1ccccc1` [Compound 35a], the pIC50 at cIAP2-BIR3 was 9.40. Besides, the IC50 in series [3] (setting [7]) lay in the range of 1 to 10 µM.
Regarding `CC[C@H](NC)C(=O)N[C@@H]1C(=O)N2[C@@H](CC[C@@H]1CNC(=O)COCC(=O)NCCOCCOCCOCCNC(=O)[C@@H](NC(=O)[C@@H]1CC[C@@H]3CC[C@H](CO)[C@H](NC(=O)[C@H](CC)NC)C(=O)N31)c1ccccc1)CC[C@H]2C(=O)NC(c1ccccc1)c1ccccc1` [Compound 36a], on cIAP2-BIR3 (setting [9]), the pIC50 was 9.70. For the same compound, the IC50 in series [3] (setting [7]) lay within 1 to 10 µM.
Turning to `CN[C@@H](C)C(=O)N[C@H]1CCCC[C@H]2CC[C@@H](C(=O)N[C@@H](c3ccccc3)c3cn(CCCCc4ccc(CCCCn5cc([C@@H](NC(=O)[C@@H]6CC[C@@H]7CCCC[C@H](NC(=O)[C@H](C)NC)C(=O)N76)c6ccccc6)nn5)cc4)nn3)N2C1=O` [SM164, reference compound], in series [1] (setting [6]), the “TVI %, tumor volume inhibition % in treated over control mice” value is recorded as 0%. Moreover, the “BWL %, body weight loss % induced by treatment” value in series [1] (mouse, in vivo, ip, 5 mg/kg) came to 5%. In addition, the “MST, median survival time” value in series [2] was 37 days. In addition, the “Range of the days of death” value in series [2] was 24 to 49 days. Moreover, the pIC50 at cIAP1-BIR3 was 9.34. Further, the IC50 was less than 1 µM in series [3] (96 hours treatment), less than 1 µM in series [4] (96 hours treatment) and 10 to 50 µM in series [5].
Turning to `CN[C@@H](C)C(=O)N[C@H]1CCCC[C@H]2CC[C@@H](C(=O)N[C@@H](c3ccccc3)c3cn(CCCCc4ccc(CCCCn5cc([C@@H](NC(=O)[C@@H]6CC[C@@H]7CCCC[C@H](NC(=O)[C@H](C)NC)C(=O)N76)c6ccccc6)nn5)cc4)nn3)N2C1=O` [SM-164, reference compound], the Antitumor effect result in series [1] (i.p., 5 mg/Kg, qdx5/wx3, IGROV-1 s.c.) is recorded as “did not display any antitumor effect”.
